Biological target: Glutaminyl-peptide cyclotransferase (Homo sapiens, UniProt Q16769)
Assay: Inhibitory activity against human glutaminyl cyclase

Sequence of Glutaminyl-peptide cyclotransferase (Q16769 whole entry): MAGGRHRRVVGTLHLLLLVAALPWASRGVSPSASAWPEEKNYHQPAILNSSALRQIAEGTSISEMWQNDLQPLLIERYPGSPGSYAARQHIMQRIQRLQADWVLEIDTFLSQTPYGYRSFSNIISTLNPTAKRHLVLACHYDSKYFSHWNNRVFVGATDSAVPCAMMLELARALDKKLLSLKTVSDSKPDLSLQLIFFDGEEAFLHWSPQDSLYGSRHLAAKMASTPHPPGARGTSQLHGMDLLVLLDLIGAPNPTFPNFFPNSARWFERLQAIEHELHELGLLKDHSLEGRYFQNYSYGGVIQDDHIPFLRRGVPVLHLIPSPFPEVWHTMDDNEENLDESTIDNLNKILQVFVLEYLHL

Structure (SMILES) | Ki
O=C1CNC(=S)N1CCCn1ccnc1 | 700 nM
S=C(NCCCn1ccnc1)NC1CCCCC1 | 4700 nM

— ChEMBL document CHEMBL1147743, “The first potent inhibitors for human glutaminyl cyclase: synthesis and structure-activity relationship” (J Med Chem, 2006)
